The subject of assay [1] is E. Coli. Kind of assay: MBC determination, sub-culturing from MIC tubes. The class given is cell-based, Escherischia coli (ATCC 25922). To be noted: Escherichia coli, value as mupirocin concentration, read-out: Mupirocin MBC & MFC. From the text: (§1) Methicillin-resistant Staphylococcus aureus (ATCC 33592) Coagualse Negative Staphylococcus epidermidis (Clinical Isolate) Vancomycin-Restistant Enterococcus faecali (ATCC 115992) Escherischia coli (ATCC 25922) Candida albicans (ATCC 10231)
(§2) Muller Hinton Agar (MHA) was used in this study for all bacteria: BD Cat #211438, Lot number 7155220. Yeast Dextrose Broth (Y/D B) was used to test C. albicans Yeast Dextrose Broth contains 10 g/L of yeast extract and 10 g/L of dextrose. Yeast Extract Cat #BD 210933, Lot number 8074851 (Expiration 2010-01-31). Dextrose Cat # BD215530 (Lot Number 6163169). Yeast Dextrose Agar (Y/D A) was used to test C. albicans Yeast Dextrose Agar contains 10 g/L of yeast extract and 10 g/L of dextrose and 17 g/L Agar. Agar Cat # BD 214010 (Lot Number 214010).
(§3) 1. The test organism, (bacteria or yeast) was obtained from frozen cultures. 2. Two days prior to the experiment, a portion of test bacterium from frozen culture collection was streaked and cultured on a non-selective agar plate (e.g. TSA). Plates were then incubated overnight at 37° C.±1° C. and the culture was examined for purity prior to use. […] 3. The day prior to the experiment, a portion of test organism was inoculated from the above-mentioned plate into MHB and vortexed. Incubate at 37° C.±1° C. for approximately eighteen hours. 4. […]

Assay [2] relates to C. albicans (yeast). Kind of assay: MBC & MFC determination, sub-culturing from MIC tubes. To be noted: Candida albicans, value as mupirocin concentration. The class given is cell-based, Candida albicans (ATCC 10231).
Text: as §1, §2, §3

Assay [3] deals with MRSA. Kind of assay: MBC determination, sub-culturing from MIC tubes. The settings on record: Staphylococcus aureus, mupirocin alone, read-out: Mupirocin MBC & MFC. It is filed as cell-based, Methicillin-resistant Staphylococcus aureus (ATCC 33592).
Text: as §1, §2, §3

Assay [4] concerns MRSA. Kind of assay: MIC determination, macrodilution method. It is filed as cell-based, Methicillin-resistant Staphylococcus aureus (ATCC 33592).
Text: as §1
(§4) Muller Hinton Broth (MHB) was used in this study for all bacteria: BD Cat #211443, Lot numbers 9097650.
as §3, with “4. For Candida albicans (ATCC 10231): The day prior to the experiment a portion of test organism was inoculated from the above-mentioned plate into Yeast/Dextrose Broth and vortexted. Bacterial MIC determination was conducted according to Kirby-Bauer macrodilution method. The bacterial/yeast density was adjusted to approximately 10^7 CFU/m; (Approx OD625 0.1±0.05).” for “4.”

The subject of assay [5] is C. albicans (yeast). Briefly: MIC determination, macrodilution method. It is filed as cell-based, Candida albicans (ATCC 10231).
Text: as §1, §2
(§5) 1. The test organism, (bacteria or yeast) was obtained from frozen cultures. 2. Two days prior to the experiment, a portion of test bacterium from frozen culture collection was streaked and cultured on a non-selective agar plate (e.g. TSA). Plates were then incubated overnight at 37° C.±1° C. and the culture was examined for purity prior to use. […] 3. The day prior to the experiment, a portion of test organism was inoculated from the above-mentioned plate into MHB and vortexed. Incubate at 37° C.±1° C. for approximately eighteen hours. 4. For Candida albicans (ATCC 10231): The day prior to the experiment a portion of test organism was inoculated from the above-mentioned plate into Yeast/Dextrose Broth and vortexted. Bacterial MIC determination was conducted according to Kirby-Bauer macrodilution method. The bacterial/yeast density was adjusted to approximately 10^7 CFU/m; (Approx OD625 0.1±0.05). Stock solutions of each test article or combination were made by adding each test article to MHB to give an MHB/test article mixture of the following concentrations: Benzoyl Peroxide=6% in MHB and Mupiocin=256 μg/mL in MHB.
For bacterial: Mupirocin=256 μg/mL & BP at 0.0469% in MHB For yeast: Mupirocin=256 μg/mL & BP at 0.0115% in MHB […]

Assay [6] concerns Staph epidermidis. Briefly: MIC determination, macrodilution method. It is filed as cell-based.
Text: as §1, §4
as §5, with “Stock solutions of each test article or combination were made by adding each test article to MHB to give an MHB/test article mixture of the following concentrations: Benzoyl Peroxide=6% in MHB and Mupiocin=256 μg/mL in MHB.” left out

The subject of assay [7] is E. Coli. Kind of assay: MIC determination, macrodilution method. The class given is cell-based, Escherischia coli (ATCC 25922). The settings on record: Escherichia coli, MHB, approx. 24 h at 37° C., value as mupirocin concentration, combination starts at BP 0.0469%.
Text: as §1, §4
as §5, with “Stock solutions of each test article or combination were made by adding each test article to MHB to give an MHB/test article mixture of the following concentrations: Benzoyl Peroxide=6% in MHB and Mupiocin=256 μg/mL in MHB.” left out

Assay [8] has as its system VRE. Briefly: MIC determination, macrodilution method. It is filed as cell-based, Vancomycin-Restistant Enterococcus faecali (ATCC 115992).
Text: as §1, §4
as §5, with “Stock solutions of each test article or combination were made by adding each test article to MHB to give an MHB/test article mixture of the following concentrations: Benzoyl Peroxide=6% in MHB and Mupiocin=256 μg/mL in MHB.” left out

For assay [9], the system named is VRE. Kind of assay: MBC determination, sub-culturing from MIC tubes. It is filed as cell-based, Vancomycin-Restistant Enterococcus faecali (ATCC 115992). To be noted: Enterococcus, value as mupirocin concentration, read-out: Mupirocin MBC & MFC.
Text: as §1, §2, §3

In assay [10] the test system is Staph epidermidis. Briefly: MBC determination, sub-culturing from MIC tubes. The settings on record: Staphylococcus epidermidis, mupirocin alone, read-out: Mupirocin MBC & MFC. It is filed as cell-based.
Text: as §1, §2, §3

For the next assay, the system named is Staph organisms. Kind of assay: Cidal activity (MBC) against Staph organisms. It is filed as cell-based, Staphylococcus. How it is done: Bacterial MBC determination was conducted according to Kirby-Bauer macro-dilution method. […] The tubes were incubated for approximately 24 h at 37° C.±1° C. and then scored for their MBC.

A word on the MIC: it is the lowest concentration found to suppress growth. Take `C/C(=C\C(=O)OCCCCCCCCC(=O)O)C[C@@H]1OC[C@H](C[C@@H]2O[C@H]2[C@@H](C)[C@H](C)O)[C@@H](O)[C@H]1O` [Mupirocin]: the MBC in the assay on E. Coli [1] is greater than 256 µg/mL; in the assay on C. albicans (yeast) [2], greater than 256 µg/mL; in the assay with MRSA [3] it was 32 µg/mL; in the assay with VRE [9] it was greater than 256 µg/mL; in the assay on Staph epidermidis [10], 32 µg/mL. The MIC with MRSA [4] (Staphylococcus aureus, MHB, approx. 24 h at 37° C., value as mupirocin concentration, combination starts at BP 0.0469%) was 1 µg/mL; with C. albicans (yeast) [5] (Candida albicans, C. albicans, approx. 24 h at 37° C., value as mupirocin concentration, combination starts at BP 0.0115%) it was greater than 256 µg/mL; in the assay on Staph epidermidis [6] (Staphylococcus epidermidis, MHB, approx. 24 h at 37° C., value as mupirocin concentration, combination starts at BP 0.0469%), 1 µg/mL; with E. Coli [7], 64 µg/mL; in the assay with VRE [8] (Enterococcus, MHB, approx. 24 h at 37° C., value as mupirocin concentration, combination starts at BP 0.0469%), 64 µg/mL. Also, in the assay with C. albicans (yeast) [5] (at the concentrations tested), the “Efficacy against the yeast C. albicans (in words)” value was “ineffective”. Also, the “Cidal activity against Staph organisms (in words)” value in the assay with Staph organisms is on record as “Cidal activity”.
Turning to `O=C(OOC(=O)c1ccccc1)c1ccccc1` [BPO, Benzoyl peroxide], the “BPO in DMSO MIC” value in the assay on MRSA [4] (BPO alone dissolved in DMSO) is on record as 0.1875% (0.78%); with C. albicans (yeast) [5] (C. albicans, BPO alone dissolved in DMSO), 0.046% (0.19%); in the assay with Staph epidermidis [6] (BPO alone dissolved in DMSO) it was 0.1875% (0.78%); in the assay with VRE [8] (BPO alone dissolved in DMSO) it was 0.1875% (0.78%).

The values above are taken from patent publication US20130018023A1, “COMPOSITIONS FOR TOPICAL ADMINISTRATION” (SOL-GEL TECHNOLOGIES LTD., priority 2010, published 2013).
